According to patent US7018802B2, “Electrochemiluminescent enzyme immunoassay” (BioVeris Corporation, priority 1995, dated 2006):
Read-outs that look alike come from different tables or passages of the source.

Tests used:
[1] = target: T1, β-lactamase I from Bacillus cereus (Bacillus cereus, UniProt P00809); type: biochemical; settings: for ECL increase upon enzyme hydrolysis, second experiment: incubating time with enzyme 60 minutes, ampicillin with Ru(bpy)3^+2, FIG. 9
Procedure: ECL properties were compared both before and after NaOH and enzymatic hydrolysis (FIG. 7).
Following 30 minute incubations, the solutions were neutralized with 50 μL of 5 M HCl. […] Following 30 minute incubations, 50 μL of 5 M NaCl was added to these solutions.
ECL properties were compared before and after NaOH and enzymatic hydrolysis.
Following 30 minute incubations, the solutions were neutralized with 50 μL of 5 M HCl. […] Following 60 minute incubations, 50 μL of 5 M NaCl was added to these solutions.

[2] = target: T1, β-lactamase I from Bacillus cereus; settings: in words
[3] = 3.8 μM β-lactamase I, 23.0 μM, 6-APA in equimolar mixture with Ru(bpy)3^+2 (nonconjugated), FIG. 11
[4] = 347 nM β-lactamase I, 30 minutes, 30 μM, ampicillin in equimolar mixture with Ru(bpy)3^+2 (nonconjugated), FIG. 8

T1 sequence (P00809 28-306): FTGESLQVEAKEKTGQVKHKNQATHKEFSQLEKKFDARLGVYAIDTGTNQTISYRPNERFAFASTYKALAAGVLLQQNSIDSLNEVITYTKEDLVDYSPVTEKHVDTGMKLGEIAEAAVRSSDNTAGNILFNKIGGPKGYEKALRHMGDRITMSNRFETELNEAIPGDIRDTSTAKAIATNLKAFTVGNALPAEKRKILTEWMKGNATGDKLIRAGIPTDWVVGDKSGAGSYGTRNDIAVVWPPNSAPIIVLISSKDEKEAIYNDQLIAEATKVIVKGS

Compound	ECL increase upon enzyme hydrolysis [1, 3] [fold]	ECL increase upon enzyme hydrolysis [1, 4] [fold]	ECL increase upon enzyme hydrolysis, second experiment [1] [fold]	substrate quality for β-lactamase [2]
CC1(C)S[C@@H]2[C@H](N)C(=O)N2[C@H]1C(=O)O [6-APA, 6-aminopenicillanic acid, reference compound]	1.4	–	–	–
CC1(C)S[C@@H]2[C@H](NC(=O)[C@H](N)c3ccccc3)C(=O)N2[C@H]1C(=O)O [ampicillin, reference compound]	–	2.1	2.5	–
Ru(bpy)3^+2-labeled 6-aminopenicillanic acid [Ru-APA]	31.8	–	–	very good substrate
Ru(bpy)3^+2-labeled ampicillin [Ru-AMP]	–	9.8	11.1	very good substrate
